The results in this text go back to patent US20220062281A1, “INHIBITORS TO TARGET HIV-1 NEF-CD80/CD86 IN[…] THERAPEUTIC INTERVENTION” (priority 2018, published 2022).

SMILES strings stand for the structures.

The target in experiment [1] is Nef interaction with CD80 (Human immunodeficiency virus type 1 group M subtype B, UniProt P04601). Put plainly: ELISA primary screen: Nef binding to CD80 cytosolic peptide. Conditions: CD80 pIC50 value, inhibition of Nef-CD80 binding. Also noted: species or system HIV-1. The procedure: (§1) Standard ELISA assay was used to validate the compounds as a primary screen. The basic steps of the assay are outlined in FIG. 1. The cytosolic peptides CD80, CD86 and CD74 are coated on a microplate, while CD80 and CD86 has higher binding capacity with the Nef protein, CD74 is non-specific peptide and is a peptide negative control for Nef binding. The coated plates are incubated overnight at 4° C. The plates were washed 5 times with PBS (0.02% Tween-20) before every step. After washing, the wells were blocked with 5% blotto and incubated at RT with shaking (650 rpm). The plates were washed 5 times with PBS (0.02%-tween20) after every step. Primary antibody […] anti-Nef raised in rabbit dissolved in 2.5% blotto (1:1000) were added and incubated on shaker for 1 hour at RT. Plate was washed and 100 μL anti rabbit raised in donkey dissolved in 2.5% blotto (1:11000) was added and incubated at RT for 45 min. Plate was washed with PBS and TMB substrate solution was added and incubated in dark for 5-10 min. The reaction was stopped with 1N H2SO4 and the absorbance was measured at 450 nm. Positive control (Nef) and Negative control (No peptide with Nef) were analysed for highest binding of Nef with peptide. The absorbance of the plates was measured at 450 nm.
(§2) A throughput screen was performed to pull out the actives. Standard quality control metrics like Z′ were used to qualify plates and Z′ scores were used to identify actives. The IC50 value of the compounds were further determined to evaluate the efficacy of the test compounds.
(§3) The IC50 values of the compounds have been illustrated in Table 1. […] Actives predominantly belong to compounds from Formula I, II and III with IC50s in nano or subnanomolar ranges were selected. Selected compounds were then screened in the cell-based assays systems.
On the technique in general: ELISA stands for enzyme-linked immunosorbent assay.

The test system of experiment [2] is Nef mediated internalization of surface CD80/86 in B/monocyte cells. Put plainly: Cell-based phenotypic screen for downregulation of surface CD80/86 (flow cytometry). Conditions: 100 μM, pre-exposed 2 hrs, then infected with non-replicative retrovirus containing NEF; flow cytometry after 48-72 hrs. From the text:
CD80 and CD86 are two major co-stimulatory cell surface proteins that are present on antigen presenting cells (APCs) and provide a co-stimulatory signal necessary for activation and survival of the naïve T cells. Both these proteins get down regulated during HIV infection via a Nef mediated pathway. It has been speculated that Nef ability to reduce CD80 and CD86 surface expression in infected cells can prevent the activation of naive T cells, necessary for an efficient recognition and elimination of the target cells. FIG. 2 illustrates that in the presence of the compounds of Formula I, Formula II or Formula III, the binding of Nef with CD80 and CD86 is inhibited thus increasing their expression. The increased expression would activate naïve T cells and aid in eliminating the infection.
Briefly monocyte/B cell lines were either delivered with Nef protein or exposed to replication deficient retrovirus and the levels of surface CD80/86 was evaluated by flow cytometry with/without compound treatment. The compounds were qualified based on the ability to reverse the down regulation of CD80/86 caused by the Nef protein. Similar quality checks were used in the secondary screen as in primary screen. Briefly, B/monocyte cells were preexposed to 100 μM of the 4 compounds for 2 hrs and then infected with non-replicative retrovirus containing NEF. The internalization of surface receptors were measured by flow cytometry after optimal infection (48-72 hrs).
Background: In flow cytometry, cells or beads pass a laser one at a time.

Experiment [3] has as its target Nef interaction with CD86 (Human immunodeficiency virus type 1 group M subtype B, UniProt P04601). The experiment in a line: ELISA primary screen: Nef binding to CD86 cytosolic peptide. Also on record: species or system HIV-1. The procedure: as §1, §2, §3
Experiment [4] has as its system Nef mediated T cell inactivation. The experiment in a line: T cell activation assay (IL-2 release, B-cell line co-cultured with T cell line). In kind it is cell-based. Conditions: 100 μM, B-cell line pre-exposed 1 hr, Nef via protein delivery agent, IL-2 by ELISA after 3 hrs. The source says: The appropriate cell system was designed to mimic the biology of the said interactions. FIG. 4(A) represents the principle behind the activation of naïve T cells by the antigen presenting cells (APC), including dendritic cells, B cells, monocytes, macrophages. The activation is based on CD80/86 co-stimulation along with CD3 activation by major histocompatibility complex (MHC) as evidenced by an increase in IL-2 release from the activated T cells.
Representative compounds from the Formula I, II and III were tested in the functional T cell assay and the results are as presented in FIG. 5. B-cell line was pre-exposed to 100 μM of the 4 compounds for 1 hr. The cells were washed and then Nef was introduced via protein delivery agent. The cells were washed again and co-cultured with T cell line. The IL-2 release (as an indicator of activation) was measured by ELISA after 3 hrs. Addition of Nef reduced the T cell activation by more than 50%.

Take `Cc1cc(C)n(-c2ncc(-c3ccc([N+](=O)[O-])cc3)cn2)n1` [Compound I1a, 2-(3,5-Dimethyl-1H-pyrazol-1-yl)-5-(4-nitrophenyl)pyrimidine]: the half-inhibitory concentration (IC50) – broadly, the point on the concentration scale where inhibition reaches its midpoint – in experiment [1] was 0.00234 nM.
The same measure, in the same setting: as for `CN(C)c1ncc(-c2ccccc2)cn1` [Compound I3a, N,N-Dimethyl-5-phenylpyrimidin-2-amine], the figure is 0.011 nM.
Regarding `FC(F)(F)c1ccc(-c2cnc(N3CCOCC3)nc2)cc1` [Compound I3b, 4-[5-(4-(Trifluoromethyl)phenyl)pyrimidin-2-yl]morpholine], the “reversal of Nef mediated internalization of CD80/86” value (“reversal … of CD80/86” for short) in experiment [2] is listed as “reversal of Nef mediated internalization of CD80/86”. Moreover, the IC50 in experiment [1] is 0.129 nM; in experiment [3] it was 1.62 nM. The “reversal of Nef mediated inactivation of T cells (IL-2 release)” value (from here on “reversal … (IL-2 release)”) in experiment [4] is listed as “reversed the Nef mediated inactivation”.
In experiment [1], `O=C(Oc1ccccc1)n1c(=S)oc2ccccc21` [II1, Phenyl 2-thioxobenzo[d]oxazole-3(2H)-carboxylate] showed an IC50 of 0.0912 nM.
As for `Cc1ccc(OC(=O)Nc2ccc(Cc3ccc(NC(=O)Oc4ccc(C)cc4)cc3)cc2)cc1` [II2d, Di-p-tolyl [methylenebis(4,1-phenylene)]dicarbamate], the results for the IC50 in experiment [1] and in experiment [3] were 10.5 nM and 513 nM, respectively.
`O=C(Nc1ccccc1F)Oc1ccc2ccccc2c1` [II3, Naphthalen-2-yl (2-fluorophenyl)carbamate]: the “reversal … of CD80/86” value in experiment [2] was “reversal of Nef mediated internalization of CD80/86”. In experiment [3], this compound gave an IC50 of 0.0126 nM. For the same compound, the “reversal … (IL-2 release)” value in experiment [4] is “reversed the Nef mediated inactivation”.
As to `O=C(Nc1ccc(Cl)c(Cl)c1)Nc1cc([N+](=O)[O-])ccc1OC(=O)Nc1ccc(Cl)c(Cl)c1` [II4, 2-[3-(3,4-dichlorophenyl)ureido]-4-nitrophenyl (3,4-dichlorophenyl)carbamate], the concentration for half-maximal inhibition (IC50) is 0.0275 nM in experiment [1] and 0.275 nM in experiment [3].
Turning to `O=C(Oc1cccc(-c2nnco2)c1)N(c1ccccc1)c1ccccc1` [II5, 3-[(1,3,4-oxadiazol-2-yl)phenyl]diphenylcarbamate], in experiment [1], the IC50 was 0.00275 nM.
For `Cc1ccc(S(=O)(=O)NNC(=O)c2ccccc2OC(=O)Nc2ccccc2)cc1` [II7, 2-[(2-Tosylhydrazine-1-carbonyl)phenyl]phenylcarbamate], the IC50 in experiment [1] is 0.0871 nM.
With `CCCOC(=O)c1ccc(NC(=O)COc2cccc(C)c2)cc1` [III1e, Propyl 4-[2-(m-tolyloxy)acetamido]benzoate], in experiment [1], the IC50 is 2.34 nM.
Consider `Cc1cc(C)cc(OCC(=O)Nc2ccc(C(=O)O)c(O)c2)c1` [III2a, 4-[2-(3,5-dimethylphenoxy)acetamido]-2-hydroxybenzoic acid], for which the “reversal … of CD80/86” value in experiment [2] is on record as “reversal of Nef mediated internalization of CD80/86”. In experiment [1], this compound had a concentration for half-maximal inhibition (IC50) of 0.00447 nM. Also, the “reversal … (IL-2 release)” value in experiment [4] is listed as “reversed the Nef mediated inactivation”.
On to `CC(Oc1ccccc1)C(=O)Nc1ccc(C(=O)O)cc1` (stereo not shown) [III2b, 4-(2-Phenoxypropanamido)benzoic acid], for which the half-maximal inhibitory concentration (IC50) in experiment [1] is 1.12 nM.
As to `CCOC(=O)c1ccc(NC(=O)C(C)(C)Oc2ccc(Cl)cc2)cc1` [III2c, Ethyl 4-[2-(4-chlorophenoxy)-2-methylpropanamido]benzoate], the IC50 in experiment [1] was 1.51 nM.
